Laboratory results from patent publication US8815270B2, “Methods and compositions for treating ectoparasite infestation” (Piedmont Pharmaceuticals, LLC, priority 2002, dated 2014).

Test system: adult body louse, Pediculous humanus humanus
Protocol: In this embodiment, the effectiveness of pediculicidal materials in the formulation of Example 1 is examined against the adult body louse, Pediculous humanus humanus. But this procedure can be used to test the effectiveness of a composition against the head louse, fleas, ticks, or any ectoparasite. In the following description, “morbid” means that the louse is unable to move towards heat 1 h after treatment. The parasite is sick but not necessarily dying, and may recover to resume normal behavior within 24 hours. By “moribund” is meant the parasite is unable to move towards heat (and therefore food) 24 hours after treatment and is dying.
Four replicates of 25 lice each, plus five control replicates were examined. A plastic or glass vial, screened at the bottom with 20-mesh was used as the dipping vessel. A plunger, made from a plastic rod, and a circular screen was fitted inside the vial.
25 adult lice of mixed sexes were placed in the bottom of a test container. A screened plunger was inserted to keep the lice from floating to the surface. The pediculicide material to be tested was placed in a 100-ml beaker and the beaker introduced into a waterbath maintained at 32° C. The test container was placed into the pediculicide in the 100-ml beaker and the lice kept under the pediculicide for 1, 4 or 10 minutes. The test container was removed at end of the desired dipping period. […]

SMILES: CCCCCCCCCCCCCC(=O)OC(C)C [isopropyl myristate, 1-methylethyltetradecanoate]
- lice killed (mortality) after 1 hour: about 82%
- mortality of lice after 24 hours: 100%
